Assay results reported in ChEMBL document CHEMBL1909046, “DrugMatrix in vitro pharmacology data”.

Tests used:
[1] = biological target: Beta-1 adrenergic receptor (Homo sapiens, UniProt P08588); assay: DRUGMATRIX: Adrenergic beta1 radioligand binding (ligand: [125I] Cyanopindolol); type: cell membranes, CHO-K1, Membrane; conditions: cho-k1; Not Active = under 50% inhibition at 10 µM
Histamine H2 receptor = Histamine H2 receptor (Homo sapiens, UniProt P25021); type: cell membranes, CHO-K1, Membrane; conditions: cho-k1; further: in other assays of this panel Not Active means under 50% inhibition at 10 µM
Chain of Histamine H2 receptor (P25021 whole entry): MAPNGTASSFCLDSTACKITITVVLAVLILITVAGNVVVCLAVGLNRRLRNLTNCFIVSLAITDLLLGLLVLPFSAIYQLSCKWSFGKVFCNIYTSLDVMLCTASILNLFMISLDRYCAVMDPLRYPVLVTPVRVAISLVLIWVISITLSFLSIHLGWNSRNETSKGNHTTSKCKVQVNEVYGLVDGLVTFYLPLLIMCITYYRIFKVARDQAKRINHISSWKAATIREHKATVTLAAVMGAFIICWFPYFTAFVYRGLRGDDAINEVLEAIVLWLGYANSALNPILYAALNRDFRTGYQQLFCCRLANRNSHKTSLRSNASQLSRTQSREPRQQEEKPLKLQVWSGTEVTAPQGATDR

[2] = DRUGMATRIX: Phorbol Ester radioligand binding (ligand: [3H] PDBu); type: cell membranes, Mus musculus, ICR, Brain, Membrane; conditions: Not Active = under 50% inhibition at 10 µM
[3] = DRUGMATRIX: Purinergic P2X radioligand binding (ligand: [3H] alpha, beta-Methylene-ATP); type: cell membranes, Oryctolagus cuniculus, New Zealand albino, Urinary bladder, Membrane; conditions: Not Active = under 50% inhibition at 10 µM
Acetylcholinesterase = Acetylcholinesterase (Homo sapiens, UniProt P22303); assay: DRUGMATRIX: Acetylcholinesterase enzyme inhibition (substrate: acetylthiocholine); type: cell-based, HEK293; conditions: hek293; Not Active = under 50% inhibition at 10 µM
Chain of Acetylcholinesterase (P22303 whole entry): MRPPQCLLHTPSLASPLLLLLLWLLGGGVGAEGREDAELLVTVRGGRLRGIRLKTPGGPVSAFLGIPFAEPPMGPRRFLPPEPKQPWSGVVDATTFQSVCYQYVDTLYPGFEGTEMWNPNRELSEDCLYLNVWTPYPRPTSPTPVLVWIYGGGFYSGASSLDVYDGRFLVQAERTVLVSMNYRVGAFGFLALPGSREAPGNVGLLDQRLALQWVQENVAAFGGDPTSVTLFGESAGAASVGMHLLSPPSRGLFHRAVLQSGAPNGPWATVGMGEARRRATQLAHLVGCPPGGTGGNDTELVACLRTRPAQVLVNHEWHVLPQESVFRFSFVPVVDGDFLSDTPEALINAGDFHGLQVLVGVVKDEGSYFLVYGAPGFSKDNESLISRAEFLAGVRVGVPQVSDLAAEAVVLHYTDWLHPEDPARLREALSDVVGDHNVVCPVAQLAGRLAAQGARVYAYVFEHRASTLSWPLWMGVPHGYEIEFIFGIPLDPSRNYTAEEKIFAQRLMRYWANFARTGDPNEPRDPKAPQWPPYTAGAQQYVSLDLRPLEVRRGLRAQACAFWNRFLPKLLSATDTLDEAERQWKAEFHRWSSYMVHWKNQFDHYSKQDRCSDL

Cytochrome P450 2C19 = Cytochrome P450 2C19 (Homo sapiens, UniProt P33261); conditions: bti-tn-5b1-4; further: in other assays of this panel Not Active means under 50% inhibition at 10 µM
Chain of Cytochrome P450 2C19 (P33261 whole entry): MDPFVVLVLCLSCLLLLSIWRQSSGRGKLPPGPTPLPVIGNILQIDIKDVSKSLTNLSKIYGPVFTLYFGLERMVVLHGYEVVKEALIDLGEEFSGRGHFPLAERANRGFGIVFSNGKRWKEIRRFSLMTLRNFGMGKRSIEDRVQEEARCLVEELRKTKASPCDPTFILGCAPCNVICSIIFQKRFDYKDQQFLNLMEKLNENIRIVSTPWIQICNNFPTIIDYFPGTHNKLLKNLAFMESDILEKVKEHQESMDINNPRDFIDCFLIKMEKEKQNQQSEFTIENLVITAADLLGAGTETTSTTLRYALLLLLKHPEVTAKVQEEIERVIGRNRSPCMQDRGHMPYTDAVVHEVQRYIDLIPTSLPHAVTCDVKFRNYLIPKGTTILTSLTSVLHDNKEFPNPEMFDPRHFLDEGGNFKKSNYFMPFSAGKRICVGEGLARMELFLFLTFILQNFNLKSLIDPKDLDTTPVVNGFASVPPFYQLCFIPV

Chain of Beta-1 adrenergic receptor (P08588 whole entry): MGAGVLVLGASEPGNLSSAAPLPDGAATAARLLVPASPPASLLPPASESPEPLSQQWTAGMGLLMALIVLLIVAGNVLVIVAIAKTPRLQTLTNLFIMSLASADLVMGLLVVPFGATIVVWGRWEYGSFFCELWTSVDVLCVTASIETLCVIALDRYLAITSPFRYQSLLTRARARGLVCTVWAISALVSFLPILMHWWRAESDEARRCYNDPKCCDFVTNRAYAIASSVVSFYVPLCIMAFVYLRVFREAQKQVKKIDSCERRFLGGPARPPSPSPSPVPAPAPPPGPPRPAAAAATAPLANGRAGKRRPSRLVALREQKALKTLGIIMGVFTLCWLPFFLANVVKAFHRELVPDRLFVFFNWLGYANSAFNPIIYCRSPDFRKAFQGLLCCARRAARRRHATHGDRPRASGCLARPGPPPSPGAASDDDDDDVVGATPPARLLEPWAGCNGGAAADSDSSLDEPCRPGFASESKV

C[C@](N)(Cc1ccc(O)c(O)c1)C(=O)O [METHYLDOPA]
Not Active: IC50 [1] | IC50 (Histamine H2 receptor) | IC50 [2] | Ki [2] | IC50 [3] | Ki [3] | IC50 (Acetylcholinesterase) | IC50 (Cytochrome P450 2C19) | Ki (Cytochrome P450 2C19)

C[C@]12CCC(=O)C=C1CC[C@@H]1[C@@H]2CC[C@@]2(C)[C@H]1CC[C@]2(C)O [METHYLTESTOSTERONE]
Not Active: IC50 [1] | IC50 (Histamine H2 receptor) | IC50 [2] | Ki [2] | IC50 [3] | Ki [3] | IC50 (Acetylcholinesterase) | IC50 (Cytochrome P450 2C19) | Ki (Cytochrome P450 2C19)

Cc1ccccc1N1C(=O)c2cc(S(N)(=O)=O)c(Cl)cc2NC1C (stereo not given) [METOLAZONE]
Not Active: IC50 [1] | IC50 (Histamine H2 receptor) | IC50 [2] | Ki [2] | IC50 [3] | Ki [3] | IC50 (Acetylcholinesterase) | IC50 (Cytochrome P450 2C19) | Ki (Cytochrome P450 2C19)

NC1=NC(=O)C(c2ccccc2)O1 (stereo not given) [PEMOLINE]
Not Active: IC50 [1] | IC50 (Histamine H2 receptor) | IC50 [2] | Ki [2] | IC50 [3] | Ki [3] | IC50 (Acetylcholinesterase) | IC50 (Cytochrome P450 2C19) | Ki (Cytochrome P450 2C19)

Nc1nc2c(ncn2CCC(CO)CO)c(=O)[nH]1 [PENCICLOVIR]
Not Active: IC50 [1] | IC50 (Histamine H2 receptor) | IC50 [2] | Ki [2] | IC50 [3] | Ki [3] | IC50 (Acetylcholinesterase) | IC50 (Cytochrome P450 2C19) | Ki (Cytochrome P450 2C19)

C=C(C)C1(O)OC(=O)C=C1OC (stereo not given) [PENICILLIC ACID]
Not Active: IC50 [1] | IC50 (Histamine H2 receptor) | IC50 [2] | Ki [2] | IC50 [3] | Ki [3] | IC50 (Acetylcholinesterase) | IC50 (Cytochrome P450 2C19) | Ki (Cytochrome P450 2C19)

CCCN1C[C@H](CSC)C[C@@H]2c3cccc4[nH]cc(c34)C[C@H]21 [PERGOLIDE]
Not Active: IC50 [1] | IC50 (Histamine H2 receptor) | IC50 [2] | Ki [2] | IC50 [3] | Ki [3] | IC50 (Acetylcholinesterase) | IC50 (Cytochrome P450 2C19) | Ki (Cytochrome P450 2C19)

C1CCC(C(CC2CCCCN2)C2CCCCC2)CC1 (stereo not given) [PERHEXILINE]
Not Active: IC50 [1] | IC50 (Histamine H2 receptor) | IC50 [2] | Ki [2] | IC50 [3] | Ki [3] | IC50 (Acetylcholinesterase) | IC50 (Cytochrome P450 2C19) | Ki (Cytochrome P450 2C19)

Cc1ccc(N(CC2=NCCN2)c2cccc(O)c2)cc1 [PHENTOLAMINE]
Not Active: IC50 [1] | IC50 (Histamine H2 receptor) | IC50 [2] | Ki [2] | IC50 [3] | Ki [3] | IC50 (Acetylcholinesterase) | IC50 (Cytochrome P450 2C19) | Ki (Cytochrome P450 2C19)

CNNCc1ccc(C(=O)NC(C)C)cc1 [PROCARBAZINE]
Not Active: IC50 [1] | IC50 (Histamine H2 receptor) | IC50 [2] | Ki [2] | IC50 [3] | Ki [3] | IC50 (Acetylcholinesterase) | IC50 (Cytochrome P450 2C19) | Ki (Cytochrome P450 2C19)

CC(O)CO (stereo not given) [PROPYLENE GLYCOL]
Not Active: IC50 [1] | IC50 (Histamine H2 receptor) | IC50 [2] | Ki [2] | IC50 [3] | Ki [3] | IC50 (Acetylcholinesterase) | IC50 (Cytochrome P450 2C19) | Ki (Cytochrome P450 2C19)

CADMIUM ACETATE
Not Active: IC50 [1] | Ki [1] | IC50 (Histamine H2 receptor) | Ki (Histamine H2 receptor) | IC50 [2] | Ki [2] | IC50 [3] | Ki [3] | IC50 (Acetylcholinesterase) | Ki (Acetylcholinesterase) | IC50 (Cytochrome P450 2C19) | Ki (Cytochrome P450 2C19)

LEAD (II) ACETATE
Not Active: IC50 [1] | Ki [1] | IC50 (Histamine H2 receptor) | Ki (Histamine H2 receptor) | IC50 [2] | Ki [2] | IC50 [3] | Ki [3] | IC50 (Acetylcholinesterase) | Ki (Acetylcholinesterase) | IC50 (Cytochrome P450 2C19) | Ki (Cytochrome P450 2C19)

LIPOPOLYSACCHARIDE E. COLI O55:B5
Not Active: IC50 [1] | Ki [1] | IC50 (Histamine H2 receptor) | Ki (Histamine H2 receptor) | IC50 [2] | Ki [2] | IC50 [3] | Ki [3] | IC50 (Acetylcholinesterase) | Ki (Acetylcholinesterase) | IC50 (Cytochrome P450 2C19) | Ki (Cytochrome P450 2C19)
